According to paper PMC7765920 (Molecules, 2020):
Read-outs that look alike come from different tables or passages of the source.

How the values were obtained:
[1] = Solubility as observed in the enzyme assays; conditions: could not be analyzed properly in the enzyme assays
[2] = molecular target: T1, GST-DYRK1A-ΔC (amino acids 1–499 of rat DYRK1A) (Rattus norvegicus, UniProt Q63470); experiment: Kinase-GLO luminescent assay of DYRK1A catalytic activity; format: biochemical; conditions: read-out: DYRK1A residual activity
T1 construct: containing amino acids 1–499 of rat DYRK1A; made in house; host or cells: E. coli
Method: (§1) Optimization of the compounds, however, aimed predominantly at elimination of MAO-A-inhibitory activity while keeping DYRK1A inhibitory potency, and not at achieving high selectivity for DYRK1A over CLK1. The tests were performed as described by us before in detail. Due to the very large number of test compounds (more than 60), a first screening was performed at a single inhibitor concentration of 1 µM.
(§2) Inhibitors were dissolved in DMSO at a concentration of 10 mM and stored at […]. Working solutions were prepared to achieve a final concentration of 1 µM in the enzyme assays.
(§3) Recombinant kinases were purified from E. coli as GST (glutathione S-transferase) fusion constructs by affinity adsorption to glutathione-Sepharose. […] Catalytic activity of the kinases was measured with the help of the Kinase-GLO^TM Luminescent Assay from Promega. Assays were performed in a total volume of 10 μL in kinase buffer (25 mM Hepes pH 7.4, 0.5 mM DTT, 5 mM MgCl2, 5 μM ATP) with appropriate peptide substrates (20 μM DYRKtide for the DYRKs and 100 μM DYRKtide for HIPK2, […]; or 100 μM RS peptide for CLK1, […]). Kinases amounts in the assays were adjusted so that approximately 90% of the ATP in the assay was consumed in control samples without inhibitor. Kinase reactions were incubated at room temperature for 30 min before 10 μL Kinase-GLO reagent was added for luminometric measurement of the ATP that was not consumed by the kinases. After incubation at room temperature for an additional 10 min, luminescence was recorded for 1 s (Berthold Orion Microplate Luminometer). ATP consumption in the control samples without inhibitor was set as 100% catalytic activity, and the inhibitory effects of the test compounds were calculated relative to this value.

human recombinant MAO-A [3] = molecular target: T2, human recombinant MAO-A (Homo sapiens, UniProt P21397); parameters: method as in PMID 26192590; conditions: 95% confidence intervals in parentheses; cited from earlier work
T2 sequence (P21397 1-527): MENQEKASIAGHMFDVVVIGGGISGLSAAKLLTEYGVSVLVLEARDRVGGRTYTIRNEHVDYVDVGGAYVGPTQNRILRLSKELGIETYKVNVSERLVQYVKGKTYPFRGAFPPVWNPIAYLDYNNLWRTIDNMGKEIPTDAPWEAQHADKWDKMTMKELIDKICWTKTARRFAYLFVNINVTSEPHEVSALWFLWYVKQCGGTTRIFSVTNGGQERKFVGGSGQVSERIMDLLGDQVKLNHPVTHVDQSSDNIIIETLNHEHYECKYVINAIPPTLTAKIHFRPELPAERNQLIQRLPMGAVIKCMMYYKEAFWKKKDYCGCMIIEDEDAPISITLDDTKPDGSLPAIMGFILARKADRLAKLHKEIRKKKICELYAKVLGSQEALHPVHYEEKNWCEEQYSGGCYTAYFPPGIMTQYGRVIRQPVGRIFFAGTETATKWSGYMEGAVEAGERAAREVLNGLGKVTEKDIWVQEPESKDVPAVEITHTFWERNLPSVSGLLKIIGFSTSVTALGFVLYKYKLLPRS

human recombinant MAO-A [4] = molecular target: T2, human recombinant MAO-A; experiment: MAO-GLO luminescence assay of MAO-A catalytic activity; format: biochemical; conditions: read-out: MAO-A residual activity
Method: as §1, §2
Catalytic activity of monoamine oxidase A (MAO-A) was measured by using the luminescence-based MAO-GLO^TM Assay from Promega. Recombinant MAO-A converts a luminogenic MAO substrate into luciferin, which is, in turn, luminometrically detected in a luciferase reaction. The amount of light produced is directly proportional to MAO activity. […] Inhibitory effects of the tested compounds were calculated relative to the activity of control reactions that were run in the absence of inhibitors.

[5] = molecular target: T3, GST-CLK1cat (amino acids 141–484 of human CLK1) (Homo sapiens, UniProt P49759); experiment: Kinase-GLO luminescent assay of CLK1 catalytic activity; format: biochemical; conditions: read-out: CLK1 residual activity
T3 construct: containing amino acids 141–484 of human CLK1; made in house; host or cells: E. coli
T3 sequence (P49759 141-484): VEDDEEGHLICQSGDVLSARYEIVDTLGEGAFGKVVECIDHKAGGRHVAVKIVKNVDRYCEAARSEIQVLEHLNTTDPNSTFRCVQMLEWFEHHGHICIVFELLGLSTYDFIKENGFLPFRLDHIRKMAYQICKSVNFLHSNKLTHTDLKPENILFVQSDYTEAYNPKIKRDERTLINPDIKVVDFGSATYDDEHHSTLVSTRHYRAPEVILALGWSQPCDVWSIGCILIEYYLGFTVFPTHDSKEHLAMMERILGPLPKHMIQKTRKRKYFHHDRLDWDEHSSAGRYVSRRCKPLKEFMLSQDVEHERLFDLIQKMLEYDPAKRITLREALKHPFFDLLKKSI
Method: as §1, §2, §3

MAO-A = test system: MAO-A; parameters: method as in PMID 21183355; conditions: compared with harmine; cited from earlier work
DYRK1B = conditions: ATP competitive; cited from earlier work
DYRK3 = conditions: compared with DYRK1A/DYRK1B; cited from earlier work
DYRK2 = conditions: compared with DYRK1A/DYRK1B; cited from earlier work
DYRK4 = conditions: cited from earlier work
DYRK1A = conditions: ATP competitive; cited from earlier work
[6] = test system: GST-DYRK1A-ΔC (amino acids 1–499 of rat DYRK1A); experiment: Kinase-GLO luminescent assay of DYRK1A catalytic activity; format: biochemical; conditions: ratio of the MAO-A and DYRK1A IC50 values of Table 2
[7] = 1 µM inhibitor concentration, residual activity relative to control without inhibitor

## O=c1[nH]ccc2c1[nH]c1c(Cl)c(Cl)ccc12 [AnnH65, 7,8-Dichloro-2,9-dihydro-1H-pydrido[3,4-b]indol-1-one]
[1]
  Solubility: very poor
[2]; [7]
  remaining activity at 1 µM: 100%

## COc1ccc2c3ccnc(Cl)c3n(CC#N)c2c1 [AnnH75, 2-(1-Chloro-7-methoxy-9H-pyrido[3,4-b]indol-9-yl)acetonitrile]
Human recombinant MAO-A [3]
  IC50: > 10000 nM
Human recombinant MAO-A [4]; [7]
  remaining activity at 1 µM: 119%
[2]
  remaining activity at 1 µM: 10%

## Cc1nccc2c1[nH]c1cc(OCCN(C)C)ccc12 [AnnH62]
[5]; [7]
  remaining activity at 1 µM: 100%
MAO-A
  Factor of reduction of MAO-A inhibition: 60
Human recombinant MAO-A [4]; [7]
  remaining activity at 1 µM: 22%
[2]; [7]
  remaining activity at 1 µM: 95%

## COc1ccc2c(c1)[nH]c1c(C)nccc12 [harmine]
[5]
  remaining activity at 1 µM: 23%
DYRK1B
  IC50: […]
Human recombinant MAO-A [4]
  remaining activity at 1 µM: 3%
DYRK3
  DYRK3 inhibition: only inhibited at much higher concentrations
DYRK2
  DYRK2 inhibition: only inhibited at much higher concentrations
DYRK4
  DYRK4 inhibition: basically resistant
[2]
  remaining activity at 1 µM: 27%
DYRK1A
  IC50: […]

## COc1ccc2c3ccnc(C)c3n(CC#N)c2c1 [AnnH31, 2-(7-Methoxy-1-methyl-9H-pyrido[3,4-b]indol-9-yl)-acetonitrile]
[5]; [7]
  remaining activity at 1 µM: 11%
[6]
  Selectivity for DYRK1A over MAO-A: 40
Human recombinant MAO-A [4]; [7]
  remaining activity at 1 µM: 75%
[2]; [7]
  remaining activity at 1 µM: 8%
